Patent publication US9302999B2, “Substituted triazoles as herbicides” (E. I. DU PONT DE NEMOURS AND COMPANY, priority 2012, dated 2016)

Legend:
Type in all cases: in vivo
[1] = test system: morningglory (Ipomoea coccinea); assay: Test C pre-/postemergence: morningglory
Summary of the method: (§1)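 Preemergence on seeds in loam/sand, postemergence on 2–18 cm (1–4-leaf) plants in peat-based medium; compounds in non-phytotoxic solvent with surfactant. After 13–15 days in greenhouse, visual rating versus controls, 0 (no effect) to 100 (complete control).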

[2] = test system: pigweed (Amaranthus retroflexus); assay: Test A pre-/postemergence: pigweed; conditions: for Pigweed plant response rating: visual rating on 0 to 100 scale (0 no effect, 100 complete control), approximately ten days
Summary of the method: (§2)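 Rating scale 0–100 (100 = complete control), visual, ~10 days after application in the greenhouse. Applications: preemergence directed soil spray; postemergence at 1–2 leaves.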

[3] = test system: ducksalad (Heteranthera limosa); assay: Test B flooded paddy: ducksalad; conditions: Flood; 250 g ai/ha; applied to paddy water at 2-leaf stage; visually evaluated after 13 to 15 days
Summary of the method: (§3)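 Plants were grown to the 2-leaf stage and pots flooded to 3 cm above soil. Compounds were applied directly into the paddy water, with depth kept for the test. After 13–15 days in greenhouse, response was rated visually against controls on a 0 (no effect) to 100 (complete control) scale.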

[4] = test system: sedge, umbrella (small-flower umbrella sedge Cyperus difformis); assay: Test B flooded paddy: sedge, umbrella; conditions: Flood; 250 g ai/ha; applied to paddy water at 2-leaf stage; visually evaluated after 13 to 15 days
Summary of the method: as §3

[5] = test system: common (oilseed) sunflower (Helianthus annuus); assay: Test C pre-/postemergence: sunflower; conditions: Preemergence
Summary of the method: as §1

[6] = test system: ragweed (common ragweed, Ambrosia elation); assay: Test C pre-/postemergence: ragweed
Summary of the method: as §1

[7] = test system: bermudagrass (Cynodon dactylon); assay: Test C pre-/postemergence: bermudagrass
Summary of the method: as §1

corn (Zea mays) = assay: Test A pre-/postemergence: corn; conditions: for Corn plant response rating: Postemergence; for Plant response rating, Corn: Preemergence
Summary of the method: as §2

[8] = test system: lambsquarters (Chenopodium album); assay: Test C pre-/postemergence: lambsquarters
Summary of the method: as §1

[9] = test system: wheat (Triticum aestivum); assay: Test A pre-/postemergence: wheat; conditions: for Wheat plant response rating: visual rating on 0 to 100 scale (0 no effect, 100 complete control), approximately ten days
Summary of the method: as §2

[10] = Preemergence, 31 g ai/ha, scale of 0 to 100, 0 is no effect, 100 is complete control
[11] = Preemergence, 62 g ai/ha, scale of 0 to 100, 0 is no effect, 100 is complete control
[12] = Preemergence, 125 g ai/ha, scale 0 to 100, 0 no effect, 100 complete control
[13] = Preemergence, 250 g ai/ha, scale 0 to 100, 0 no effect, 100 complete control
[14] = Postemergence, 125 g ai/ha, 0 to 100 scale, 0 is no effect, 100 is complete control
[15] = Preemergence, 125 g ai/ha, 0 to 100 scale where 0 is no effect and 100 is complete control
[16] = Preemergence, 500 g ai/ha, 0 to 100 scale (0 no effect, 100 complete control)
[17] = 31 g ai/ha, scale of 0 to 100, 0 is no effect, 100 is complete control
[18] = 62 g ai/ha, scale of 0 to 100, 0 is no effect, 100 is complete control
[19] = 125 g ai/ha, scale 0 to 100, 0 no effect, 100 complete control
[20] = 250 g ai/ha, scale 0 to 100, 0 no effect, 100 complete control
[21] = 125 g ai/ha, 0 to 100 scale, 0 is no effect, 100 is complete control
[22] = 500 g ai/ha, visual rating on 0 to 100 scale (0 no effect, 100 complete control), approximately ten days
[23] = 125 g ai/ha, 0 to 100 scale where 0 is no effect and 100 is complete control
[24] = 500 g ai/ha, 0 to 100 scale (0 no effect, 100 complete control)
[25] = Postemergence, 31 g ai/ha, scale 0 to 100 (0 no effect, 100 complete control)
[26] = Postemergence, 62 g ai/ha, scale 0 to 100 (0 no effect, 100 complete control)
[27] = Postemergence, 125 g ai/ha, scale 0 to 100, 0 no effect, 100 complete control
[28] = Postemergence, 250 g ai/ha, scale 0 to 100

Which “Plant response rating, Morningglory” value [1, 10] does the source give for `Cc1nn(-c2ccc(F)cc2F)nc1Oc1ccnc(C(F)(F)F)c1` [Compound 146] here?
Its value is 35.

What about the “Plant response rating, Morningglory” value [1, 11] of the same molecule?
Its value is 40.

What about the “Plant response rating, Morningglory” value [1, 12] of the same molecule?
The value was 45.

What about the “Plant response rating, Morningglory” value [1, 13] of the same molecule?
The value was 90.

And the “Plant response rating, Pigweed” value [2, 14]?
The value was 100.

And the “Pigweed plant response rating” value ([2]; Postemergence, 500 g ai/ha)?
The value was 100.

What about the “Plant response rating, Pigweed” value [2, 15] of the same molecule?
The value was 100.

What about the “Plant response rating, Pigweed” value [2, 16] of the same molecule?
The value was 100.

What about the “Plant response rating, Ducksalad (0 to 100 scale, 0 is no effect, 100 is complete control)” value [3] of the same molecule?
The value was 60.

And the “Plant response rating, Sedge, Umbrella (0 to 100 scale, 0 is no effect, 100 is complete control)” value [4]?
The value was 80.

What about the “Plant response rating, Sunflower” value [5, 17] of the same molecule?
Its value is 10.

And the “Plant response rating, Sunflower” value [5, 18]?
The value was 20.

And the “Plant response rating, Sunflower” value [5, 19]?
Its value is 30.

And the “Plant response rating, Sunflower” value [5, 20]?
Its value is 35.

And the “Plant response rating, Ragweed” value [6, 10]?
Its value is 0.

What about the “Plant response rating, Ragweed” value [6, 11] of the same molecule?
Its value is 0.

What about the “Plant response rating, Ragweed” value [6, 12] of the same molecule?
The value was 45.

What about the “Plant response rating, Ragweed” value [6, 13] of the same molecule?
The value was 45.

What about the “Plant response rating, Bermudagrass” value [7, 10] of the same molecule?
The value was 98.

What about the “Plant response rating, Bermudagrass” value [7, 11] of the same molecule?
Its value is 98.

What about the “Plant response rating, Bermudagrass” value [7, 12] of the same molecule?
The value was 98.

And the “Plant response rating, Bermudagrass” value [7, 13]?
The value was 98.

What about the “Corn plant response rating” value (corn (Zea mays); [21]) of the same molecule?
The value was 20.

And the “Corn plant response rating” value (corn (Zea mays); [22])?
Its value is 80.

What about the “Plant response rating, Corn” value (corn (Zea mays); [23]) of the same molecule?
Its value is 0.

What about the “Plant response rating, Corn” value (corn (Zea mays); [24]) of the same molecule?
Its value is 10.

And the “Plant response rating, Lambsquarters” value [8, 10]?
Its value is 10.

And the “Plant response rating, Lambsquarters” value [8, 11]?
Its value is 40.

And the “Plant response rating, Lambsquarters” value [8, 12]?
The value was 85.

What about the “Plant response rating, Lambsquarters” value [8, 13] of the same molecule?
The value was 95.

What about the “Plant response rating, Wheat” value [9, 14] of the same molecule?
The value was 10.

And the “Wheat plant response rating” value ([9]; Postemergence, 500 g ai/ha)?
The value was 30.

And the “Plant response rating, Wheat” value [9, 15]?
Its value is 0.

And the “Plant response rating, Wheat” value [9, 16]?
The value was 30.

Which “Plant response rating, Morningglory” value [1, 25] does the source give for `Cc1nn(-c2ccc(C(F)(F)F)c(F)c2)nc1Oc1ccnc(C(F)(F)F)c1` [Compound 148] here?
The value was 70.

And the “Plant response rating, Morningglory” value [1, 26]?
Its value is 98.

And the “Plant response rating, Morningglory” value [1, 27]?
The value was 98.

What about the “Plant response rating, Morningglory” value [1, 28] of the same molecule?
The value was 98.

And the “Plant response rating, Morningglory” value [1, 10]?
The value was 20.

And the “Plant response rating, Morningglory” value [1, 11]?
Its value is 20.

What about the “Plant response rating, Morningglory” value [1, 12] of the same molecule?
The value was 55.

What about the “Plant response rating, Morningglory” value [1, 13] of the same molecule?
The value was 75.

What about the “Plant response rating, Pigweed” value [2, 14] of the same molecule?
The value was 100.

And the “Pigweed plant response rating” value ([2]; Postemergence, 500 g ai/ha)?
The value was 100.

And the “Plant response rating, Pigweed” value [2, 15]?
The value was 100.

What about the “Plant response rating, Pigweed” value [2, 16] of the same molecule?
Its value is 100.

And the “Plant response rating, Ducksalad (0 to 100 scale, 0 is no effect, 100 is complete control)” value [3]?
Its value is 85.

And the “Plant response rating, Sedge, Umbrella (0 to 100 scale, 0 is no effect, 100 is complete control)” value [4]?
Its value is 85.

And the “Plant response rating, Sunflower” value [5, 17]?
The value was 0.

And the “Plant response rating, Sunflower” value [5, 18]?
Its value is 0.

What about the “Plant response rating, Sunflower” value [5, 19] of the same molecule?
The value was 10.

What about the “Plant response rating, Sunflower” value [5, 20] of the same molecule?
The value was 10.

What about the “Plant response rating, Ragweed” value [6, 25] of the same molecule?
Its value is 65.

And the “Plant response rating, Ragweed” value [6, 26]?
Its value is 85.

What about the “Plant response rating, Ragweed” value [6, 27] of the same molecule?
The value was 85.

What about the “Plant response rating, Ragweed” value [6, 28] of the same molecule?
The value was 85.

And the “Plant response rating, Ragweed” value [6, 10]?
Its value is 15.

And the “Plant response rating, Ragweed” value [6, 11]?
The value was 45.

And the “Plant response rating, Ragweed” value [6, 12]?
The value was 55.

And the “Plant response rating, Ragweed” value [6, 13]?
The value was 70.

And the “Plant response rating, Bermudagrass” value [7, 25]?
Its value is 10.

And the “Plant response rating, Bermudagrass” value [7, 26]?
The value was 30.

What about the “Plant response rating, Bermudagrass” value [7, 27] of the same molecule?
Its value is 50.

What about the “Plant response rating, Bermudagrass” value [7, 28] of the same molecule?
Its value is 55.

What about the “Plant response rating, Bermudagrass” value [7, 10] of the same molecule?
The value was 98.

What about the “Plant response rating, Bermudagrass” value [7, 11] of the same molecule?
Its value is 100.

What about the “Plant response rating, Bermudagrass” value [7, 12] of the same molecule?
Its value is 100.

And the “Plant response rating, Bermudagrass” value [7, 13]?
The value was 100.

And the “Corn plant response rating” value (corn (Zea mays); [21])?
The value was 20.

What about the “Corn plant response rating” value (corn (Zea mays); [22]) of the same molecule?
The value was 40.

What about the “Plant response rating, Corn” value (corn (Zea mays); [23]) of the same molecule?
The value was 10.

And the “Plant response rating, Corn” value (corn (Zea mays); [24])?
Its value is 20.

And the “Plant response rating, Lambsquarters” value [8, 25]?
The value was 98.

What about the “Plant response rating, Lambsquarters” value [8, 26] of the same molecule?
The value was 98.

And the “Plant response rating, Lambsquarters” value [8, 27]?
The value was 98.

What about the “Plant response rating, Lambsquarters” value [8, 28] of the same molecule?
The value was 98.

And the “Plant response rating, Lambsquarters” value [8, 10]?
Its value is 15.

And the “Plant response rating, Lambsquarters” value [8, 11]?
Its value is 25.

And the “Plant response rating, Lambsquarters” value [8, 12]?
The value was 65.

What about the “Plant response rating, Lambsquarters” value [8, 13] of the same molecule?
Its value is 85.

And the “Plant response rating, Wheat” value [9, 14]?
Its value is 20.

What about the “Wheat plant response rating” value ([9]; Postemergence, 500 g ai/ha) of the same molecule?
Its value is 40.

And the “Plant response rating, Wheat” value [9, 15]?
The value was 30.

And the “Plant response rating, Wheat” value [9, 16]?
Its value is 50.
